The source of these data is PubChem BioAssay AID743359 (Molecular Libraries Program, Specialized Chemistry Center, …, 2014).

Activity calls are given as the source filed them.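 How the source made its calls: active means compounds whose half-maximal inhibitory concentration IC50 is 20 µM or lower; inactive means the rest.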

The assay relates to isolated mouse liver mitochondria, Ca2+ swelling, A540 20 min. Put plainly: mtPTP inhibitors blocking calcium-induced swelling, dose response, dry powder samples, uHTS hits, absorbance (AID 743359).

With `CN1CCN(Cc2ccc(NS(=O)(=O)c3ccc(F)c(Cl)c3)cc2)CC1`, the IC50 was > 50 µM (inactive).
To `O=S(=O)(Nc1ccc(CCN2CCCCC2)cc1)c1cc(Cl)cc(Cl)c1` belongs 25.1 µM (inactive); to `CN1CCN(c2ccc(NS(=O)(=O)c3ccc(F)c(Cl)c3)cc2)CC1`, > 50 µM (inactive).
The value for `COc1ccc(Cl)cc1C(=O)Nc1ccc(CN2CCN(C(=O)OC(C)(C)C)CC2)cc1` was 14.9 µM; that for `CN1CCN(c2ccc(NC(=O)c3ccc(OCc4ccccc4)cc3)cc2)CC1` was > 50 µM (inactive).

A word on the IC50: it is the concentration that inhibits the measured activity by half.
